Literature values in patent publication US20140271892A1, “PHENYLEPHRINE RESINATE PARTICLES HAVING GOOD AUC” (McNeil-PPC, Inc., priority 2013, published 2014).

Legend:
[1] = therapeutic dose
[2] = 30 mg dose administered orally over eight hours

| SMILES | excreted unchanged in the urine [1] | metabolized to m-hydroxy-phenylglycol-sulfate [2] | metabolized to m-hydroxymandelic acid [2] | metabolized to phenylephrine-glucuronide [2] | metabolized to phenylephrine-sulfate [2] |
| --- | --- | --- | --- | --- | --- |
| CC(=O)Nc1ccc(O)cc1 [acetaminophen, Acetaminophen] | Less than 9 % of a therapeutic dose | – | – | – | – |
| CNC[C@H](O)c1cccc(O)c1 [phenylephrine, (R)-1-(3-hydroxyphenyl)-2-methylaminoethanol] | – | 6 % of the dose | 30 % of the dose | 12 % of the dose | 47 % of the dose |
